According to the OPERA property sets (Mansouri et al. 2018):
≈ marks a conversion by molar mass, not a printed value.

Conditions: not given
Work on `C=C1C[C@]23C[C@@]1(O)CC[C@H]2[C@@]12C=C[C@H](O)[C@@](C)(C(=O)O1)[C@H]2[C@@H]3C(=O)O` yielded a solubility of 14.4 mM (≈ 5000 µg/mL).
`O=C(OCCOc1ccc(Cl)cc1Cl)c1ccccc1` gave a solubility of 0.154 mM (≈ 48 µg/mL).
Work on `O=C[C@@H]1C[C@@H]2[C@@H]3[C@H]1[C@@]1(Cl)C(Cl)(Cl)[C@]3(Cl)[C@@]3(Cl)[C@@H]2[C@]31Cl` yielded a solubility of 6.3e-05 mM (≈ 0.024 µg/mL).
`Cc1[nH]c(=O)n(C(C)C)c(=O)c1Br` showed a solubility of 8.7 mM (≈ 2150 µg/mL).

Same assay, conditions: 20 °C
Work on `O=C1CCc2cccc3c2N1CC3` yielded a solubility of 23.1 mM (≈ 4000 µg/mL).
`CNC(=O)N(C)c1nnc(C(F)(F)F)s1` showed a solubility of 8.74 mM (≈ 2100 µg/mL).
For `CNC(=S)[S-].[Na+]`, the solubility was 5590 mM.
Work on `COP(=S)(OC)SCC(=O)N(c1ccc(Cl)cc1)C(C)C` yielded a solubility of 0.037 mM (≈ 13.6 µg/mL).
`CN(C)C(O)=Nc1ccc(-n2nc(C(C)(C)C)oc2=O)c(Cl)c1` gave a solubility of 0.0472 mM (≈ 16 µg/mL).
Compound `CCCOC/C(=N\c1ccc(Cl)cc1C(F)(F)F)n1ccnc1` has a solubility of 36.1 mM (≈ 12500 µg/mL).
`CC(C)OP(=O)(OC(C)C)SCc1ccccc1` showed a solubility of 1.39 mM (≈ 400 µg/mL).
`CNC(=O)Oc1ccccc1C1OCCO1` gave a solubility of 26.9 mM (≈ 6000 µg/mL).
Compound `O=[N+]([O-])c1ccc(O/N=C/c2cc(Br)c(O)c(Br)c2)c([N+](=O)[O-])c1` has a solubility of 0.000217 mM (≈ 0.1 µg/mL).
With `CCSCCSP(=O)(OC)OC` the solubility was 14.3 mM (≈ 3300 µg/mL).
In the case of `N#C/C(=N\OCC1OCCO1)c1ccccc1`, the solubility was 0.0861 mM (≈ 20 µg/mL).
For `COP(=S)(OC)Oc1ccc(Sc2ccc(OP(=S)(OC)OC)cc2)cc1`, the solubility was 0.000579 mM (≈ 0.27 µg/mL).
`O=S1(=O)OCC2C(CO1)C1(Cl)C(Cl)=C(Cl)C2(Cl)C1(Cl)Cl` (centres undefined) showed a solubility of 0.00114 mM (≈ 0.48 µg/mL).
In the case of `[Br-].[Br-].c1cc[n+]2c(c1)-c1cccc[n+]1CC2`, the solubility was 2060 mM.
For `O=CNC(Nc1ccc(Cl)c(Cl)c1)C(Cl)(Cl)Cl` (centres undefined), the solubility was 0.476 mM (≈ 160 µg/mL).
In the case of `CCOC(=O)NCCOc1ccc(Oc2ccccc2)cc1`, the solubility was 0.0199 mM (≈ 6 µg/mL).
For `CCOC(=O)Nc1cccc(OC(=O)Nc2ccccc2)c1`, the solubility was 0.0233 mM (≈ 7 µg/mL).
In the case of `CN(C)C(=O)SCCCCOc1ccccc1`, the solubility was 0.118 mM (≈ 30 µg/mL).
Compound `CCC1COC(Cn2cncn2)(c2ccc(Cl)cc2Cl)O1` (centres undefined) has a solubility of 0.244 mM (≈ 80 µg/mL).
Compound `O=C(O)Cc1c[nH]c2ccccc12` has a solubility of 8.56 mM (≈ 1500 µg/mL).
In the case of `C=CCN(CC=C)C(=O)C(Cl)Cl`, the solubility was 24 mM (≈ 5000 µg/mL).
`Cc1ccc(NC(=O)N(C)C)cc1Cl` showed a solubility of 0.329 mM (≈ 70 µg/mL).
Work on `CC(Cl)(Cl)[N+](=O)[O-]` yielded a solubility of 17.4 mM (≈ 2500 µg/mL).
In the case of `CN(C(=O)COc1nc2ccccc2s1)c1ccccc1`, the solubility was 0.0134 mM (≈ 4 µg/mL).
With `C#CC(C)N(C(=O)CCl)c1ccccc1` (centres undefined) the solubility was 2.26 mM (≈ 500 µg/mL).
For `C1CNCCN1.Cl.Cl`, the solubility was 2580 mM.
`Cc1cc(N(C)C)nc(Cl)n1` gave a solubility of 54.8 mM (≈ 9400 µg/mL).

Same assay, conditions: 22 °C
Work on `CCSC(=O)N(CC)C1CCCCC1` yielded a solubility of 0.395 mM (≈ 85 µg/mL).

Same assay, conditions: 23 °C
For `COC(=O)C(C)N(C(=O)c1ccccc1)c1ccc(F)c(Cl)c1` (centres undefined), the solubility was 0.0857 mM (≈ 28.8 µg/mL).

Same assay, conditions: 25 °C
`CN(C)C(=O)Nc1cc(C(C)(C)C)on1` showed a solubility of 3.74 mM (≈ 790 µg/mL).
Work on `COC(=O)C(C)Oc1ccc(Oc2ncc(C(F)(F)F)cc2Cl)cc1` (centres undefined) yielded a solubility of 0.0248 mM (≈ 9.3 µg/mL).
`FC(F)(F)c1nc2c(Cl)c(Cl)ccc2[nH]1` gave a solubility of 0.271 mM (≈ 69 µg/mL).
In the case of `O=C(O)c1cc(Cl)c(Cl)cc1Cl`, the solubility was 3.59 mM (≈ 810 µg/mL).
Compound `CCN(CC)C(=O)CCl` has a solubility of 571 mM (≈ 85500 µg/mL).
`CCOC(=O)CN(C(=O)CCl)c1c(CC)cccc1CC` gave a solubility of 0.337 mM (≈ 105 µg/mL).
`CNC(=O)Oc1c(C(C)(C)C)cc(C)cc1C(C)(C)C` showed a solubility of 0.0252 mM (≈ 7 µg/mL).
`CCCCc1c(C)nc(NCC)nc1OS(=O)(=O)N(C)C` showed a solubility of 0.0695 mM (≈ 22 µg/mL).
For `CNP(=O)(OC)Oc1ccc(C(C)(C)C)cc1Cl` (centres undefined), the solubility was 0.686 mM (≈ 200 µg/mL).
For `CC(O)COCc1c(Cl)ccc(Cl)c1Cl` (centres undefined), the solubility was 0.271 mM (≈ 73 µg/mL).
For `CCCCS/C(=N\c1cccnc1)SCc1ccc(C(C)(C)C)cc1`, the solubility was 0.00268 mM (≈ 1 µg/mL).
In the case of `O=C(O)COc1cc(Cl)cc(Cl)c1`, the solubility was 4.35 mM (≈ 961 µg/mL).
Work on `CCSC(=O)N(CC)CC` yielded a solubility of 20.3 mM (≈ 3280 µg/mL).
`Cc1ccc(/N=C/N(C)/C=N/c2ccc(C)cc2C)c(C)c1` gave a solubility of 0.00341 mM (≈ 1 µg/mL).
`COP(=S)(OC)Oc1ccc([N+](=O)[O-])c(C)c1` gave a solubility of 0.137 mM (≈ 38 µg/mL).
With `Cc1nc(C)c(Cl)c(O)c1Cl` the solubility was 0.0521 mM (≈ 10 µg/mL).
`CCOP(=S)(OCC)SCSP(=S)(OCC)OCC` showed a solubility of 0.0052 mM (≈ 2 µg/mL).
Compound `C=C(CC(Cl)(Cl)Cl)c1ccccc1` has a solubility of 0.0522 mM (≈ 12.3 µg/mL).
`COC(=O)C1(O)c2ccccc2-c2ccc(Cl)cc21` (centres undefined) gave a solubility of 0.0655 mM (≈ 18 µg/mL).
`O=C(O)COc1nc(Cl)c(Cl)cc1Cl` showed a solubility of 1.72 mM (≈ 440 µg/mL).
Work on `CC(C)=CCl` yielded a solubility of 11 mM (≈ 1000 µg/mL).

Same assay, conditions: 26 °C
`CCNc1nc(OC)nc(N(CC)CC)n1` gave a solubility of 1 mM (≈ 226 µg/mL).

Same assay, conditions: 30 °C
Compound `CCC(C)N(C(=O)SCc1ccccc1)C(C)CC` (centres undefined) has a solubility of 0.00895 mM (≈ 2.5 µg/mL).
For `CN1C(=O)[C@]23CC4=CC=C[C@H](O)[C@H]4N2C(=O)[C@@]1(CO)SS3`, the solubility was 0.214 mM (≈ 70 µg/mL).

Same assay, conditions: pH 3.0; 26 °C
Work on `CCN(CC)c1nc(NC(C)C)nc(OC)n1` yielded a solubility of 0.0129 mM (≈ 3.09 µg/mL).

Same assay, conditions: pH 7.0; 25 °C
`Cn1cc(-c2ccccc2)c(=O)c(-c2cccc(C(F)(F)F)c2)c1` gave a solubility of 0.0364 mM (≈ 12 µg/mL).
